Measurements: article PMC7340268, “Structural definition of polyspecific compensatory ligand recognition by P-glycoprotein” (IUCrJ, 2020)
Entries after “also recorded” stand apart in the source; their conditions may differ. Marks after values point to notes of the source that are not given here.

Key:
[1] = system: Pgp C952A control and the five aromatic replacement mutants (Y303A, Y306A, F724A, F728A, F979A); test: Effect of BDE-100 on basal and verapamil-stimulated ATPase activity; format: biochemical, mouse; conditions: BDE-100 at 50, 75 and 100 µM
Description: Figure 3 The effect of BDE-100 on the verapamil-stimulated ATPase activity of the six Pgp mutations. […]. The level of BDE-100 inhibition of the verapamil-stimulated ATPase EC50 for each mutant is also shown. P values were determined from a two-tailed unequal variance test: ****, p ≤ 0.0001; ***, p ≤0.0001–0.001; *, p ≤0.05–0.01. […]
(Figure 4) were chosen to yield a more finely sampled dose response for this figure. BDE-100 alone had little effect on Pgp ATPase activity. Inhibitory effects of BDE-100 at 50 µM, 75 µM and 100 µM on the Verapamil-EC50 specific to each mutant were determined. All measurements were determined with seven independent measurements (n=7).
(1 picture or pasted object on this page, not shown here)

[2] = biological target: T1, Pgp C952A (Mus musculus, UniProt P21447, C952A); test: Co-crystal structure, occupancy refinement of BDE-100; format: binding
T1 construct: 6xHis (C); made in house; host or cells: Pichia pastoris
T1 sequence (P21447 whole entry C952A): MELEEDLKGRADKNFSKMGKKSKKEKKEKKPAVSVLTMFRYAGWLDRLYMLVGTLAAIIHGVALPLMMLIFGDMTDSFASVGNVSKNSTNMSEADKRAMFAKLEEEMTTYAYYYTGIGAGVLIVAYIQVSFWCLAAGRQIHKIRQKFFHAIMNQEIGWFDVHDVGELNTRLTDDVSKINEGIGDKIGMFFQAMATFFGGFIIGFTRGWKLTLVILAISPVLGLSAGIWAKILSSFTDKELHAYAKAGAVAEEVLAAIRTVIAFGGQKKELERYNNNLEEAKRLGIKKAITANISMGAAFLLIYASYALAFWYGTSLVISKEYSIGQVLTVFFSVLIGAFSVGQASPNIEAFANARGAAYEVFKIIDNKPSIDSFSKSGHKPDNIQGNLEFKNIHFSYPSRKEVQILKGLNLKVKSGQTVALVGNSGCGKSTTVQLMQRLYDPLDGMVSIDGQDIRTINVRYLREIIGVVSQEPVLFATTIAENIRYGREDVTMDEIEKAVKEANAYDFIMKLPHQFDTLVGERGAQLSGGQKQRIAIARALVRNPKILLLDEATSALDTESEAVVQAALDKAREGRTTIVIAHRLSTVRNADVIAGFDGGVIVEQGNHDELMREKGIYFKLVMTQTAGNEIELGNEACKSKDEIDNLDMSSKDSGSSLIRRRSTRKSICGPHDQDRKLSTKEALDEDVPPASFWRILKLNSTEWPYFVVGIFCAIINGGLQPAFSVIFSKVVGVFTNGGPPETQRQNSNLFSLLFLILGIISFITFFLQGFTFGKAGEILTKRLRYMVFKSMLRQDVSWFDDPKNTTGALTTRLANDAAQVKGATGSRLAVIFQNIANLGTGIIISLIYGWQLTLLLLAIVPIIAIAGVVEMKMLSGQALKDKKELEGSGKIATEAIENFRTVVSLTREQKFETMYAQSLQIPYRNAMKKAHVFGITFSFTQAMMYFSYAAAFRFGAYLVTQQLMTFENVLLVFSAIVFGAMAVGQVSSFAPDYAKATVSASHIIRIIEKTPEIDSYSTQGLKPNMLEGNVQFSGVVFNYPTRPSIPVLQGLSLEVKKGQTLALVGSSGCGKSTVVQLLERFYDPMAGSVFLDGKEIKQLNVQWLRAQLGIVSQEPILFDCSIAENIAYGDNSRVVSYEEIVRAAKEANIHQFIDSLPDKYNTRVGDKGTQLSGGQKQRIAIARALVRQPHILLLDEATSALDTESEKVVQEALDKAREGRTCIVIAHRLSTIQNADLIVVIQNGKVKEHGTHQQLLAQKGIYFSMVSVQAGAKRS
Description: (§1) To reproduce the binding of BDE-100 to Pgp and maintain crystal isomorphism, we utilized the reductive-methylation protocol of Ward et al. (2013[▸]) with some modifications. Fresh dimethylamine–borane (20 mM; Sigma–Aldrich) and 16% formaldehyde (40 mM; Thermo Scientific) were added to 1–3 mg mouse Pgp. The mixture was incubated for 2 h at 4°C and further dimethylamine–borane and formaldehyde were added after 2 h. After incubation for 16 h at 4°C, the reaction was quenched with cold glycine on ice for 2 h and flushed with SEC buffer (10 mM Tris–HCl pH 7.5, 75 mM NaCl, 0.0375% DDM, 0.04% sodium cholate, 0.1 mM TCEP). The eluted protein was concentrated to 2–3 mg ml^−1 and incubated with 0.5 mM BDE-100 (AccuStandard) dissolved in DMSO in the dark for 16 h at 4°C. The precipitate was centrifuged and the extracted sample was […] 1:10 in SEC buffer to give a final concentration of 10–13 mg ml^−1. Crystallization was set up using 3 µl sitting drops in 24-well Cryschem plates (Hampton Research) with a 1:1 ratio of protein solution and reservoir solution [0.1 M HEPES, 50 mM lithium sulfate, 10 mM EDTA, 26–28.5%(w/v) polyethylene glycol (PEG) 600 pH 7.9–8.4]. Crystals could be visualized after ∼3 days at 4°C and reached full size in ∼4 weeks.
(§2) X-ray diffraction data were collected at 100 K on beamline 23-ID-D at the Advanced Photon Source (APS). MAD scans were obtained from Pgp–BDE-100 co-crystals near the Br K edge to optimize for the strongest anomalous signal at the beginning of each data-collection session and whenever data were collected from a new mutant. The data were processed, integrated and scaled with HKL-2000 (Otwinowski & Minor, 1997[▸]). The Pgp structures were solved by molecular replacement using the previously solved BDE-100 complex structure (PDB entry 4xwk; Nicklisch et al., 2016[▸]) without the BDE-100 (Table 1 ▸) using an initial rigid-body refinement of the two pseudosymmetric halves of the protein. Subsequent rounds included the full molecule with chains linked including ligands. Phenix.elbow was used to produce ligand description dictionaries (Adams et al., 2010[▸]) and the placement of BDE-100 was verified by anomalous scattering of the Br atoms and OMIT density (see Fig. 1 ▸ for top views, Supplementary Fig. S1 for side views and Supplementary Fig. S2 for ligand F o − F c OMIT maps) calculated via CNS (Brünger et al., 1998[▸]). The structures agreed with the previously solved structure as our control mutant (C952A) contained BDE-100 in the same position based on experimental data. All models were subjected to rigid-body, xyz, group B-factor and individual B-factor refinement using phenix.refine (Afonine et al., 2010[▸]) and the model geometry was monitored using MolProbity (Chen et al., 2010[▸]) in the absence of the ligand. The BDE-100 atoms were then modeled and the structures were subjected to the same refinement steps including occupancy refinement using an occupancy of 0.5 as the starting point. […] We conclude there is a sufficient data-to-parameter ratio to refine both B factors and occupancy for the BDE-100 ligand in PDB entry 4xwk as well as in all of our structures. Our own refinement of PDB entry 4xwk yielded a ligand occupancy of 0.66 and our control mutant C952A agreed very well, with a refined occupancy of 0.67 (for a full list, see Table 2 ▸). The refined occupancy values for ligands also agreed very well with the intensities of their respective anomalous difference Fourier electron densities. Data statistics and parameters supporting the quality of the structures are presented in Table 1 ▸ and Supplementary Table S1. Figures were prepared and r.m.s.d.s were calculated in PyMOL (version 1.8; Schrödinger). […]

[3] = biological target: T2, Pgp C952A/F724A (Mus musculus, UniProt P21447, C952A/F724A); test: as above; format: binding
T2 construct: 6xHis (C); made in house; host or cells: Pichia pastoris
Description: as §1, §2

[4] = biological target: T3, Pgp C952A/F728A (Mus musculus, UniProt P21447, C952A/F728A); test: as above; format: binding
T3 construct: 6xHis (C); made in house; host or cells: Pichia pastoris
T3 sequence (P21447 whole entry F728A/C952A): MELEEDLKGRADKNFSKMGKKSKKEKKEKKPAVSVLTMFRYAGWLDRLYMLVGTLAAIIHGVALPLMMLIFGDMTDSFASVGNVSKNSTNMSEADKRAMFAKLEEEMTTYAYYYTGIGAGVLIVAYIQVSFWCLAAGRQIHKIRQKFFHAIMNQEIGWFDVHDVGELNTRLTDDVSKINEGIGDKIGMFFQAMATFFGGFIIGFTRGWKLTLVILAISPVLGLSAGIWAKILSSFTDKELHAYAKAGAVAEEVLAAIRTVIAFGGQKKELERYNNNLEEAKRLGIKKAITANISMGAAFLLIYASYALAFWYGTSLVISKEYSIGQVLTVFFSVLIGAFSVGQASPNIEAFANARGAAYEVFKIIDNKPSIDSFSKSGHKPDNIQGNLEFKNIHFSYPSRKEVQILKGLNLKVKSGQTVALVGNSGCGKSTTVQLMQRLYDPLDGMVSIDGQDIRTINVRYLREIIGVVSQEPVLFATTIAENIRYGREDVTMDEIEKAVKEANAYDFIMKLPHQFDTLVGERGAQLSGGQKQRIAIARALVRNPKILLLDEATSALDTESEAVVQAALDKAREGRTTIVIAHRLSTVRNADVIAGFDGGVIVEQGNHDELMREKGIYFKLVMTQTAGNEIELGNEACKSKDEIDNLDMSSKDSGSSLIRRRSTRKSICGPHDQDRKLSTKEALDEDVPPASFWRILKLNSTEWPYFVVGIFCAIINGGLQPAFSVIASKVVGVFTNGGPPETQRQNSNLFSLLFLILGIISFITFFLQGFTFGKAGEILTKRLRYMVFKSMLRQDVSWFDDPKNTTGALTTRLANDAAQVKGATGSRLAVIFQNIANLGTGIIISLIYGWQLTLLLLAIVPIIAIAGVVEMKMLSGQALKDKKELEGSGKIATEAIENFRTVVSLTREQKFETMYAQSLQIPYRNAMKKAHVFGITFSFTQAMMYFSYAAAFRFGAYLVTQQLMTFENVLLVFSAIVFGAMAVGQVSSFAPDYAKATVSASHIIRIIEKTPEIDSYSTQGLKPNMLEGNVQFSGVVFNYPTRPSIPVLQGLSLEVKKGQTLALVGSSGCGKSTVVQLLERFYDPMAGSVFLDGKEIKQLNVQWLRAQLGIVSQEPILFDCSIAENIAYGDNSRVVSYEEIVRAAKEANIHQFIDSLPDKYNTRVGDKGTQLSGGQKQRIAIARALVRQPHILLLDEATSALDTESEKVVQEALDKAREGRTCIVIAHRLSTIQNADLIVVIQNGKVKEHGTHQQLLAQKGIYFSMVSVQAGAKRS
Description: as §1, §2

[5] = biological target: T4, Pgp C952A/F979A (Mus musculus, UniProt P21447, C952A/F979A); test: as above; format: binding
T4 construct: 6xHis (C); made in house; host or cells: Pichia pastoris
Description: as §1, §2

[6] = biological target: T5, Pgp C952A/Y303A (Mus musculus, UniProt P21447, C952A/Y303A); test: as above; format: binding
T5 construct: 6xHis (C); made in house; host or cells: Pichia pastoris
Description: as §1, §2

[7] = biological target: T6, Pgp C952A/Y306A (Mus musculus, UniProt P21447, C952A/Y306A); test: as above; format: binding
T6 construct: 6xHis (C); made in house; host or cells: Pichia pastoris
T6 sequence (P21447 whole entry Y306A/C952A): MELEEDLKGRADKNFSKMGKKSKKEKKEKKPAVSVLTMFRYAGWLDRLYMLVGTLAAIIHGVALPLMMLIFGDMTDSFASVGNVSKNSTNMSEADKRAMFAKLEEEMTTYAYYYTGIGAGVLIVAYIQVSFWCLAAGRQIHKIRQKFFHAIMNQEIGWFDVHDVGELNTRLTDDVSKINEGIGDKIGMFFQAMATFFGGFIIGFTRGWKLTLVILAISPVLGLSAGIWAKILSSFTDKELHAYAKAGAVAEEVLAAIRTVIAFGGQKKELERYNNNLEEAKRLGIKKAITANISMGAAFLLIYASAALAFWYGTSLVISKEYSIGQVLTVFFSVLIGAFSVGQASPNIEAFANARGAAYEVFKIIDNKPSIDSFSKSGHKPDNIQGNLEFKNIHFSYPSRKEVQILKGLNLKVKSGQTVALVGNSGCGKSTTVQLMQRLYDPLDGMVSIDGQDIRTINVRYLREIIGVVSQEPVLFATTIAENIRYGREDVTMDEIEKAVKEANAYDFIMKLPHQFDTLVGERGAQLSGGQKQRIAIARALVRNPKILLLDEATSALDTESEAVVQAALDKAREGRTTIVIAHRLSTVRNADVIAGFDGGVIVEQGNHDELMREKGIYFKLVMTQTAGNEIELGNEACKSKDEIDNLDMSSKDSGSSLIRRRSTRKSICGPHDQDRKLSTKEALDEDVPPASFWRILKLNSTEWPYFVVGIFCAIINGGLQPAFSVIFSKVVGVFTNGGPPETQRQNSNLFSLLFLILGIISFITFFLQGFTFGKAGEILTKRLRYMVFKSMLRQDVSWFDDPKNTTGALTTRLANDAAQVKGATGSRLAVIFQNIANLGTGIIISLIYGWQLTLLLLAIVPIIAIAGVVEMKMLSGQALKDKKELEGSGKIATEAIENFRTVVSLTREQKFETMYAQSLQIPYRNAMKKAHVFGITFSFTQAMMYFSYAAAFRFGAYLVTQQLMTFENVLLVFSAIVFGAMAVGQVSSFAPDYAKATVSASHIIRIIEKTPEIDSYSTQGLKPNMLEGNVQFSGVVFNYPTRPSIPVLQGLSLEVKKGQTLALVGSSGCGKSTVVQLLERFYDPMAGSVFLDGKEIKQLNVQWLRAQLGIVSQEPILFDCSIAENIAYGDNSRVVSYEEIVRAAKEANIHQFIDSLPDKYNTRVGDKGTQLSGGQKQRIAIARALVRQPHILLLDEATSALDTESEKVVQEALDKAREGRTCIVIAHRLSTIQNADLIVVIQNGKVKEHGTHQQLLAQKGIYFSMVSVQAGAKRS
Description: as §1, §2

[8] = biological target: Pgp (PDB entry 4xwk) (Mus musculus, UniProt P21447); test: Authors' own occupancy refinement of the published Pgp-BDE-100 structure; format: binding; conditions: own refinement using the deposited structure factors
Pgp (PDB entry 4xwk), sequence (P21447 whole entry): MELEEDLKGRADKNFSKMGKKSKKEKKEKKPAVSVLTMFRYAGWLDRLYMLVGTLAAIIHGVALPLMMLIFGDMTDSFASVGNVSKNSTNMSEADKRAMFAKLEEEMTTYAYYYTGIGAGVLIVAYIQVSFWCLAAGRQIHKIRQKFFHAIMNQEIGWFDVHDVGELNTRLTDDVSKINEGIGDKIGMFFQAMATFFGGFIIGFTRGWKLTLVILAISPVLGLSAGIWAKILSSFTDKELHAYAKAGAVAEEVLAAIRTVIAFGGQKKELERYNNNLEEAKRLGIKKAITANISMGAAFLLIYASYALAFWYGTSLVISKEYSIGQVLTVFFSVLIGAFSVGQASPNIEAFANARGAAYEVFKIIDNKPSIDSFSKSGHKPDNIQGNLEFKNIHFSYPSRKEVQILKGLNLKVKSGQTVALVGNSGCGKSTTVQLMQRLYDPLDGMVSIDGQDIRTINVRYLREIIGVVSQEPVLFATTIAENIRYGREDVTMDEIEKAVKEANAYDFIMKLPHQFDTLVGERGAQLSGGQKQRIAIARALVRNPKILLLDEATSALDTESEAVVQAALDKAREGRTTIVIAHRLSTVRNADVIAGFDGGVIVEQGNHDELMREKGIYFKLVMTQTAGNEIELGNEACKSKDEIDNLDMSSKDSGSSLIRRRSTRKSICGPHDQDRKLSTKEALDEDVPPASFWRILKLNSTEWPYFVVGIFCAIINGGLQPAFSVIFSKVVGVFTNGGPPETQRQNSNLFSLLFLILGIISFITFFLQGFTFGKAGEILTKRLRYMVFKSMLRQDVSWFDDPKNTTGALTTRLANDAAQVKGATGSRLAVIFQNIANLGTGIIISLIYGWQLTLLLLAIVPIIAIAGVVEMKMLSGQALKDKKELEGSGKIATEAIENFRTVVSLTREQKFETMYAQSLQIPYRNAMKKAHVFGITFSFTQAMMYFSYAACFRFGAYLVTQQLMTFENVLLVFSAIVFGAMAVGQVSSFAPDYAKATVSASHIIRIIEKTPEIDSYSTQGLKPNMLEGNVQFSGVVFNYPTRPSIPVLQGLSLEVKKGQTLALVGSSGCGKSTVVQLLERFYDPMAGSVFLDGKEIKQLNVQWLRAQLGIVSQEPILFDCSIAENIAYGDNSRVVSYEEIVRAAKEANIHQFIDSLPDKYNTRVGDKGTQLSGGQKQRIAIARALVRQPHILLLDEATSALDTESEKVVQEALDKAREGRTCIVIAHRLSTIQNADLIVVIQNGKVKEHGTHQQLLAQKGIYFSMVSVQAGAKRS
Source text: X-ray diffraction data were collected at 100 K on beamline 23-ID-D at the Advanced Photon Source (APS). MAD scans were obtained from Pgp–BDE-100 co-crystals near the Br K edge to optimize for the strongest anomalous signal at the beginning of each data-collection session and whenever data were collected from a new mutant. The data were processed, integrated and scaled with HKL-2000 (Otwinowski & Minor, 1997[▸]). The Pgp structures were solved by molecular replacement using the previously solved BDE-100 complex structure (PDB entry 4xwk; Nicklisch et al., 2016[▸]) without the BDE-100 (Table 1 ▸) using an initial rigid-body refinement of the two pseudosymmetric halves of the protein. […] Phenix.elbow was used to produce ligand description dictionaries (Adams et al., 2010[▸]) and the placement of BDE-100 was verified by anomalous scattering of the Br atoms and OMIT density (see Fig. 1 ▸ for top views, Supplementary Fig. S1 for side views and Supplementary Fig. S2 for ligand F o − F c OMIT maps) calculated via CNS (Brünger et al., 1998[▸]). […] All models were subjected to rigid-body, xyz, group B-factor and individual B-factor refinement using phenix.refine (Afonine et al., 2010[▸]) and the model geometry was monitored using MolProbity (Chen et al., 2010[▸]) in the absence of the ligand. […] Figures were prepared and r.m.s.d.s were calculated in PyMOL (version 1.8; Schrödinger). […]

[9] = system: wild-type Pgp; set-up: method as in Nicklisch et al., 2016; conditions: ref Nicklisch et al., 2016, cited from earlier work

## Brc1ccc(Oc2c(Br)cc(Br)cc2Br)c(Br)c1 [BDE-100]
[1]; absence of verapamil, C952A control and five mutants
  Effect of BDE-100 alone on basal ATPase activity: did not increase the basal ATPase activity; also recorded: little effect
[1]; at the verapamil EC50 determined for each mutant
  Effect of BDE-100 on verapamil-stimulated ATPase activity: inhibited; also recorded: significant inhibitory effect
[2]; C952A
  Occupancy of BDE-100, site 1: 67%
[2]; C952A control, as fraction
  Refined ligand occupancy, site 1: 0.67
[3]
  Occupancy of BDE-100, site 3: 35%
[4]
  Occupancy of BDE-100, site 1 (designated site 1A): 53 ^† %
  Occupancy of BDE-100, site 2: 48%
[5]
  Occupancy of BDE-100, site 1: 65%
[6]
  Occupancy of BDE-100, site 1: 64%
  Occupancy of BDE-100, site 2: 56%
[7]
  Occupancy of BDE-100, site 1: 68%
  Occupancy of BDE-100, site 2: 49%
[8]
  Occupancy of BDE-100, site 1: 66%
[8]; as fraction
  Refined ligand occupancy, site 1: 0.66
[9]
  Inhibition of verapamil-stimulated ATPase activity: potent inhibitor
[9]; wild-type Pgp
  Effect of BDE-100 alone on basal ATPase activity: did not increase the basal ATPase activity
